Experimental data published in PMC8119482, “A novel dual HDAC and HSP90 inhibitor, MPT0G449, downregulates oncogenic pathways in human acute leukemia in vitro and in vivo” (Oncogenesis, 2021).

Molecular target: T1, HDAC6 (Homo sapiens, UniProt Q9UBN7)
T1 sequence (Q9UBN7 1-1215): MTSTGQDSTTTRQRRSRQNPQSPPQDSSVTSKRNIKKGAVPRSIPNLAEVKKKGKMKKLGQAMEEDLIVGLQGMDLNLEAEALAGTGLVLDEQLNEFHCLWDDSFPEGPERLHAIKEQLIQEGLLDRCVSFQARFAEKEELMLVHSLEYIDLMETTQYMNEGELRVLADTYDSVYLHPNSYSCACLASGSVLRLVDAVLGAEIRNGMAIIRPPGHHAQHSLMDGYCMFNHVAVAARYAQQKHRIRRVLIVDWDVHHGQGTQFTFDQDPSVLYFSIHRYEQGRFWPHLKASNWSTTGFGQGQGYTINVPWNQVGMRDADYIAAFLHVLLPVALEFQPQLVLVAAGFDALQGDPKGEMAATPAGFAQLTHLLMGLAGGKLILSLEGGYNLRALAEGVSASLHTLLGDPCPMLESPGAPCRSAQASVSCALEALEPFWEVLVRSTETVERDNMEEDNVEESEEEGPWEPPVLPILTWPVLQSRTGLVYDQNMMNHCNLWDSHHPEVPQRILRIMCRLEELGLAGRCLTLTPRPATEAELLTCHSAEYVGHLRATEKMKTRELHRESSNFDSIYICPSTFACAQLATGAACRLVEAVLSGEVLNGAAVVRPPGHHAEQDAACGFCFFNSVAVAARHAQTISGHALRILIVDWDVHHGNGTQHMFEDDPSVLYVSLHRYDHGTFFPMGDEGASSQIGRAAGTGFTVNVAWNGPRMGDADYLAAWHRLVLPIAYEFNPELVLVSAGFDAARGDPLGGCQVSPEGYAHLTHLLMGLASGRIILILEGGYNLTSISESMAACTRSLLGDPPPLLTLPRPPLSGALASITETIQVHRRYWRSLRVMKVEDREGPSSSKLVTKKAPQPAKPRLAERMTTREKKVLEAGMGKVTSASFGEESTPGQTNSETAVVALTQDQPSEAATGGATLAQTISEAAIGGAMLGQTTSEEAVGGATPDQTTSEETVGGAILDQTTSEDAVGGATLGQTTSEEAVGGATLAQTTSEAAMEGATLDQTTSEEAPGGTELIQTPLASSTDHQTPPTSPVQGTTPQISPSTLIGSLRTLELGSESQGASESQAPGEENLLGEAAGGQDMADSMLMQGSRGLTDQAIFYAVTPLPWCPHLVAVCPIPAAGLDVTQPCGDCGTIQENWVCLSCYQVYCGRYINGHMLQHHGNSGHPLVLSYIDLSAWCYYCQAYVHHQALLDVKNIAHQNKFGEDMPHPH
Assay: HDAC isoform activity assay (Reaction Biology Corp.); values not shown in main text
Assay type: biochemical

For `CC(C)c1cc(C(=O)N(C)c2ccc(NC(=O)CCCCCCCC(=O)NO)cc2)c(O)cc1O` [compound 26, MPT0G449], the “HDAC isoform activity assay (Reaction Biology Corp.); values not shown in main t” value was “HDAC6 was selected because MPT0G499 exhibited the most potent inhibition”.
